# Measured values published in ChEMBL document CHEMBL2413072, “Synthesis and in vitro anticancer studies of novel C-2 arylidene congeners of lantadenes” (2013).
# Tests used:
# Assay type in all cases: functional
# SK-MEL-2 [1] = experiment: Growth inhibition of human SK-MEL-2 cells by sulforhodamine B assay
# [2] = Growth inhibition of human NCI-ADR-RES cells assessed as cell growth at 10^-4 M by sulforhodamine B assay; details: read-out: Activity
# SK-OV-3 = experiment: Growth inhibition of human SKOV3 cells by sulforhodamine B assay
# SK-MEL-2 [3] = experiment: Growth inhibition of human SK-MEL-2 cells assessed as cell growth at 10^-8 M by sulforhodamine B assay; details: read-out: Activity
# DU-145 = experiment: Growth inhibition of human DU145 cells assessed as cell growth at 10^-4 M by sulforhodamine B assay; details: read-out: Activity
# KM12 = experiment: Growth inhibition of human KM12 cells assessed as cell growth at 10^-7 M by sulforhodamine B assay; details: read-out: Activity
# A498 = experiment: Growth inhibition of human A498 cells assessed as cell growth at 10^-4 M by sulforhodamine B assay; details: read-out: Activity
# UO-31 = experiment: Growth inhibition of human UO31 cells assessed as cell growth at 10^-7 M by sulforhodamine B assay; details: read-out: Activity
# NCI-H226 = experiment: Growth inhibition of human NCI-H226 cells by sulforhodamine B assay
# [4] = Growth inhibition of human HCC2998 cells assessed as cell growth at 10^-4 M by sulforhodamine B assay; details: HCC 2998, read-out: Activity
# HL-60(TB) = experiment: Growth inhibition of human HL-60(TB) cells assessed as cell growth at 10^-6 M by sulforhodamine B assay; details: read-out: Activity
# LOX IMVI [5] = experiment: Growth inhibition of human LOXIMVI cells assessed as cell growth at 10^-8 M by sulforhodamine B assay; details: read-out: Activity
# MCF7 = experiment: Growth inhibition of human MCF7 cells assessed as cell growth at 10^-7 M by sulforhodamine B assay; details: read-out: Activity
# MDA-MB-435 = experiment: Growth inhibition of human MDA-MB-435 cells assessed as cell growth at 10^-8 M by sulforhodamine B assay; details: read-out: Activity
# CCRF-CEM = experiment: Growth inhibition of human CCRF-CEM cells assessed as cell growth at 10^-4 M by sulforhodamine B assay; details: read-out: Activity
# HCT-15 = experiment: Growth inhibition of human HCT15 cells assessed as cell growth at 10^-4 M by sulforhodamine B assay; details: read-out: Activity
# HCT-116 = experiment: Growth inhibition of human HCT116 cells assessed as cell growth at 10^-6 M by sulforhodamine B assay; details: read-out: Activity
# Malme-3M = experiment: Growth inhibition of human MALME-3M cells assessed as cell growth at 10^-7 M by sulforhodamine B assay; details: read-out: Activity
# NCI-H522 [6] = experiment: Growth inhibition of human NCI-H522 cells by sulforhodamine B assay
# CAKI-1 = experiment: Growth inhibition of human CAKI-1 cells assessed as cell growth at 10^-7 M by sulforhodamine B assay; details: read-out: Activity
# RXF 393 = experiment: Growth inhibition of human RXF393 cells assessed as cell growth at 10^-6 M by sulforhodamine B assay; details: read-out: Activity
# LOX IMVI [7] = experiment: Growth inhibition of human LOXIMVI cells assessed as cell growth at 10^-4 M by sulforhodamine B assay; details: read-out: Activity
# BT-549 = experiment: Growth inhibition of human BT549 cells assessed as cell growth at 10^-4 M by sulforhodamine B assay; details: read-out: Activity
# IGROV-1 = experiment: Growth inhibition of human IGROV1 cells by sulforhodamine B assay
# SK-MEL-2 [8] = experiment: Growth inhibition of human SK-MEL-2 cells assessed as cell growth at 10^-4 M by sulforhodamine B assay; details: read-out: Activity
# LOX IMVI [9] = experiment: Growth inhibition of human LOXIMVI cells assessed as cell growth at 10^-7 M by sulforhodamine B assay; details: read-out: Activity
# SR = experiment: Growth inhibition of human SR cells assessed as cell growth at 10^-6 M by sulforhodamine B assay; details: read-out: Activity
# ACHN = experiment: Growth inhibition of human ACHN cells assessed as cell growth at 10^-4 M by sulforhodamine B assay; details: read-out: Activity
# RPMI-8226 = experiment: Growth inhibition of human RPMI8226 cells assessed as cell growth at 10^-8 M by sulforhodamine B assay; details: read-out: Activity
# MDA-MB-231 = experiment: Growth inhibition of human MDA-MB-231 cells assessed as cell growth at 10^-6 M by sulforhodamine B assay; details: read-out: Activity
# NCI-H522 [10] = experiment: Growth inhibition of human NCI-H522 cells assessed as cell growth at 10^-8 M by sulforhodamine B assay; details: read-out: Activity
# MDA-MB-468 = experiment: Growth inhibition of human MDA-MB-468 cells assessed as cell growth at 10^-7 M by sulforhodamine B assay; details: read-out: Activity
# M14 = experiment: Growth inhibition of human M14 cells assessed as cell growth at 10^-7 M by sulforhodamine B assay; details: read-out: Activity
# [11] = read-out: LC50 (the source's name)
# [12] = read-out: pLC50 (the source's name) (converted)
smiles,measurement,setting,value
C/C=C(/C)C(=O)O[C@@H]1CC(C)(C)C[C@H]2C3=CC[C@@H]4[C@@]5(C)CCC(=O)C(C)(C)[C@@H]5CC[C@@]4(C)[C@]3(C)CC[C@@]12C(=O)O [LANTADENE A],GI50,SK-MEL-2 [1]; read-out: GI50,3.07 µM
same,CC50,SK-MEL-2 [1]; [11],> 100 µM
same,TGI,SK-MEL-2 [1]; read-out: TGI,8.07 µM
same,GI50,SK-MEL-2 [1]; read-out: pGI50 (converted),3.09 µM
same,CC50,SK-MEL-2 [1]; [12],> 100 µM
same,TGI,SK-MEL-2 [1]; read-out: pTGI (converted),8.13 µM
same,growth at 100 µM,[2],18%
same,GI50,SK-OV-3; read-out: GI50,18 µM
same,CC50,SK-OV-3; [11],> 100 µM
same,TGI,SK-OV-3; read-out: TGI,> 100 µM
same,GI50,SK-OV-3; read-out: pGI50 (converted),18.2 µM
same,CC50,SK-OV-3; [12],> 100 µM
same,TGI,SK-OV-3; read-out: pTGI (converted),> 100 µM
same,growth at 0.01 µM,SK-MEL-2 [3],111%
same,growth at 100 µM,DU-145,29%
same,growth at 0.1 µM,KM12,102%
same,growth at 100 µM,A498,-20%
same,growth at 0.1 µM,UO-31,94%
same,GI50,NCI-H226; read-out: GI50,4.71 µM
same,LC50,NCI-H226; read-out: LC50,> 100 µM
same,TGI,NCI-H226; read-out: TGI,> 100 µM
same,GI50,NCI-H226; read-out: pGI50 (converted),4.68 µM
same,LC50,NCI-H226; read-out: pLC50 (converted),> 100 µM
same,TGI,NCI-H226; read-out: pTGI (converted),> 100 µM
same,growth at 100 µM,[4],2%
same,growth at 1 µM,HL-60(TB),80%
same,growth at 0.01 µM,LOX IMVI [5],96%
same,growth at 0.1 µM,MCF7,90%
same,growth at 0.01 µM,MDA-MB-435,96%
same,growth at 100 µM,CCRF-CEM,9%
same,growth at 100 µM,HCT-15,9%
same,growth at 1 µM,HCT-116,86%
same,growth at 0.1 µM,Malme-3M,96%
same,GI50,NCI-H522 [6]; read-out: GI50,3.25 µM
same,CC50,NCI-H522 [6]; [11],> 100 µM
same,TGI,NCI-H522 [6]; read-out: TGI,44.1 µM
same,GI50,NCI-H522 [6]; read-out: pGI50 (converted),3.24 µM
same,CC50,NCI-H522 [6]; [12],> 100 µM
same,TGI,NCI-H522 [6]; read-out: pTGI (converted),43.7 µM
same,growth at 0.1 µM,CAKI-1,94%
same,growth at 1 µM,RXF 393,81%
same,growth at 100 µM,LOX IMVI [7],33%
same,growth at 100 µM,BT-549,18%
same,GI50,IGROV-1; read-out: GI50,6.75 µM
same,CC50,IGROV-1; [11],> 100 µM
same,TGI,IGROV-1; read-out: TGI,> 100 µM
same,GI50,IGROV-1; read-out: pGI50 (converted),6.76 µM
same,CC50,IGROV-1; [12],> 100 µM
same,TGI,IGROV-1; read-out: pTGI (converted),> 100 µM
same,growth at 100 µM,SK-MEL-2 [8],-35%
same,growth at 0.1 µM,LOX IMVI [9],95%
same,growth at 1 µM,SR,80%
same,growth at 100 µM,ACHN,16%
same,growth at 0.01 µM,RPMI-8226,102%
same,growth at 1 µM,MDA-MB-231,92%
same,growth at 0.01 µM,NCI-H522 [10],109%
same,growth at 0.1 µM,MDA-MB-468,83%
same,growth at 0.1 µM,M14,91%
CC(C)=CC(=O)O[C@@H]1CC(C)(C)C[C@H]2C3=CC[C@@H]4[C@@]5(C)CC[C@H](O)C(C)(C)[C@@H]5CC[C@@]4(C)[C@]3(C)CC[C@@]12C(=O)O [Reduced Lantadene B],GI50,SK-MEL-2 [1]; read-out: GI50,9.34 µM
same,CC50,SK-MEL-2 [1]; [11],67 µM
same,TGI,SK-MEL-2 [1]; read-out: TGI,25.4 µM
same,GI50,SK-MEL-2 [1]; read-out: pGI50 (converted),9.33 µM
same,CC50,SK-MEL-2 [1]; [12],67.6 µM
same,TGI,SK-MEL-2 [1]; read-out: pTGI (converted),25.7 µM
same,growth at 100 µM,[2],-30%
same,GI50,SK-OV-3; read-out: GI50,12.8 µM
same,CC50,SK-OV-3; [11],80.2 µM
same,TGI,SK-OV-3; read-out: TGI,32 µM
same,GI50,SK-OV-3; read-out: pGI50 (converted),12.9 µM
same,CC50,SK-OV-3; [12],79.4 µM
same,TGI,SK-OV-3; read-out: pTGI (converted),32.4 µM
same,growth at 0.01 µM,SK-MEL-2 [3],97%
same,growth at 100 µM,DU-145,-75%
same,growth at 0.1 µM,KM12,79%
same,growth at 100 µM,A498,-90%
same,growth at 0.1 µM,UO-31,95%
same,GI50,NCI-H226; read-out: GI50,5.09 µM
same,LC50,NCI-H226; read-out: LC50,86 µM
same,TGI,NCI-H226; read-out: TGI,24.2 µM
same,GI50,NCI-H226; read-out: pGI50 (converted),5.13 µM
same,LC50,NCI-H226; read-out: pLC50 (converted),85.1 µM
same,TGI,NCI-H226; read-out: pTGI (converted),24 µM
same,growth at 100 µM,[4],-66%
same,growth at 1 µM,HL-60(TB),96%
same,growth at 0.01 µM,LOX IMVI [5],98%
same,growth at 0.1 µM,MCF7,98%
same,growth at 0.01 µM,MDA-MB-435,100%
same,growth at 100 µM,CCRF-CEM,-16%
same,growth at 100 µM,HCT-15,-44%
same,growth at 1 µM,HCT-116,72%
same,growth at 0.1 µM,Malme-3M,94%
same,GI50,NCI-H522 [6]; read-out: GI50,4.22 µM
same,CC50,NCI-H522 [6]; [11],71.3 µM
same,TGI,NCI-H522 [6]; read-out: TGI,21.8 µM
same,GI50,NCI-H522 [6]; read-out: pGI50 (converted),4.17 µM
same,CC50,NCI-H522 [6]; [12],70.8 µM
same,TGI,NCI-H522 [6]; read-out: pTGI (converted),21.9 µM
same,growth at 0.1 µM,CAKI-1,98%
same,growth at 1 µM,RXF 393,93%
same,growth at 100 µM,LOX IMVI [7],-35%
same,growth at 100 µM,BT-549,-65%
same,GI50,IGROV-1; read-out: GI50,6.35 µM
same,CC50,IGROV-1; [11],> 100 µM
same,TGI,IGROV-1; read-out: TGI,29.4 µM
same,GI50,IGROV-1; read-out: pGI50 (converted),6.31 µM
same,CC50,IGROV-1; [12],> 100 µM
same,TGI,IGROV-1; read-out: pTGI (converted),29.5 µM
same,growth at 100 µM,SK-MEL-2 [8],-71%
same,growth at 0.1 µM,LOX IMVI [9],93%
same,growth at 1 µM,SR,92%
same,growth at 100 µM,ACHN,-75%
same,growth at 0.01 µM,RPMI-8226,100%
same,growth at 1 µM,MDA-MB-231,85%
same,growth at 0.01 µM,NCI-H522 [10],92%
same,growth at 0.1 µM,MDA-MB-468,98%
same,growth at 0.1 µM,M14,90%
